From ChEMBL document CHEMBL3639097, “2-aryl imidazo[1,2-a]pyridine-3-acetamide derivatives, preparation methods and uses thereof” (2015)

biological target: Translocator protein (Rattus norvegicus, UniProt P16257); test: Competitive Binding Assay: Competitive Binding Test of Drug to the Receptor (Rat Heart TSPO) and Radioligand (3H-PK11195): (1) tubes were placed in reaction condition of 30 C.(2) all tubes were added with 20 ug of receptor protein in order;(3) the test tubes were added in order with 20 uL of drugs in certain concentrations;(4) the non-specific binding tubes were added with 20 uL of non-tagged ligand (PK11195), the final concentration of the non-tagged ligand was 0.1 mM, pre-reacted for 30 min;(5) all tubes were added in order with 25 uL 3H-PK11195, the final concentration of the labeled ligand was 1.5 nM;(6) Tris-HCl Buffer pH7.4 was used to complement the reaction volumes of all tubes to reach 200 uL;(7) the reaction was performed under 30 C. reaction condition for 1 h;(8) Then samples were applied to 49-type glass fibre filter, vacuum suction filtered, then washed with 2 ml ice-cold Tris-HCl buffer solution (50 mM Tris-HCl buffer solution, 1 mM EDTA, 5 mM MgCl2, 1 mM PMSF, 0.1% NaN3.

Row | Structure (SMILES) | IC50 [nM] | Ki [nM]
1 | CCN(Cc1ccccc1)C(=O)Cc1c(-c2ccc(Cl)cc2)nc2cc(C)ccn12 | 16.9 | 7.17
2 | CCN(Cc1ccccn1)C(=O)Cc1c(-c2ccc(Cl)c(Cl)c2)nc2cc(C)ccn12 | 21.9 | 9.34
3 | CCN(Cc1ccncc1)C(=O)Cc1c(-c2ccc(Cl)c(Cl)c2)nc2cc(C)ccn12 | 26 | 11.1
4 | COCCN(Cc1ccccn1)C(=O)Cc1c(-c2ccc(Cl)c(Cl)c2)nc2cc(C)ccn12 | 15.6 | 6.66
